Data as given in PMC3523389 (The Journal of pharmacology and experimental therapeutics, 2012).

Target: T1, microsomal prostaglandin E2 synthase-1 (mPGES-1) (Homo sapiens, UniProt O14684)
T1 sequence (O14684 1-152): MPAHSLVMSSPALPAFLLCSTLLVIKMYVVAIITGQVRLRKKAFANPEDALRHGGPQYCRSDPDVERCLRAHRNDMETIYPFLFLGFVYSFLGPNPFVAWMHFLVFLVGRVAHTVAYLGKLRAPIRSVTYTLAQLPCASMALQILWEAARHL
Assay: cell-free mPGES-1 activity assay in A549 microsomes, […] inhibition at […]
Assay type: cell-based
Conditions: A549, read-out: % inhibition at 10 μM

CC(C)c1ccc2c(c1)c(SC(C)(C)C)c(CC(C)(C)C(=O)O)n2Cc1ccc(Cl)cc1 [MK-886, 3-[1-(4-chlorobenzyl)-3-t-butylthio-5-isopropylindol-2-yl]-2,2-dimethylpropanoic acid]
inhibition at 10 µM: 74.5 ± 1.5%
